# Reference: patent EP1215212A2, “Dihydro derivatives of LL-E33288 antibiotics” (priority 1987, dated 1988)
# Tests used:
# Type in all cases: cell-based
# Acinetobacter sp = experiment: Agar dilution MIC (Table II); settings: inoculum 1 to 5 x 10^4 CFU, about 18 hours, 35°C
# Description: (§1) The in vitro antibacterial activity of dihydro LL-E33288gamma l-I was determined against a spectrum of gram-positive and gram-negative bacteria by a standard agar dilution method. Mueller-Hinton agar containing two-fold decreasing concentrations of the antibiotics was poured into petri plates. The agar surfaces were inoculated with 1 to 5 x 10^4 colony forming units of bacteria by means of a Steers replicating device.
# Citrobacter diversus = experiment: Agar dilution MIC (Table II); settings: Citrobacter diversus K-82-24; inoculum 1 to 5 x 10^4 CFU; about 18 hours, 35°C
# Description: as §1
# Citrobacter freundii = experiment: Agar dilution MIC (Table II); settings: Citrobacter freundii IO 83-13; inoculum 1 to 5 x 10^4 CFU; about 18 hours, 35°C
# Description: as §1
# Enterobacter aerogenes = experiment: Agar dilution MIC (Table II); settings: Enterobacter aerogenes IO 83-44; inoculum 1 to 5 x 10^4 CFU; about 18 hours, 35°C
# Description: as §1
# Enterobacter cloacae = experiment: Agar dilution MIC (Table II); settings: Enterobacter cloacae CMC 84-4; inoculum 1 to 5 x 10^4 CFU; about 18 hours, 35°C
# Description: as §1
# Escherichia coli = experiment: Agar dilution MIC (Table II); settings: inoculum 1 to 5 x 10^4 CFU, about 18 hours, 35°C
# Description: as §1
# Klebsiella pneumoniae = experiment: Agar dilution MIC (Table II); settings: inoculum 1 to 5 x 10^4 CFU, about 18 hours, 35°C
# Description: as §1
# Morganella morganii = experiment: Agar dilution MIC (Table II); settings: Morganella morganii IO 83-18; inoculum 1 to 5 x 10^4 CFU; about 18 hours, 35°C
# Description: as §1
# Providencia stuartii = experiment: Agar dilution MIC (Table II); settings: Providencia stuartii CMC 83-82; inoculum 1 to 5 x 10^4 CFU; about 18 hours, 35°C
# Description: as §1
# Pseudomonas aeruginosa = experiment: Agar dilution MIC (Table II); settings: inoculum 1 to 5 x 10^4 CFU, about 18 hours, 35°C
# Description: as §1
# Serratia marcescens = experiment: Agar dilution MIC (Table II); settings: inoculum 1 to 5 x 10^4 CFU, about 18 hours, 35°C
# Description: as §1
# Staphylococcus aureus = experiment: Agar dilution MIC (Table II); settings: inoculum 1 to 5 x 10^4 CFU, about 18 hours, 35°C
# Description: as §1
# [1] = system: Staphylococcus epidermidis; experiment: Agar dilution MIC (Table II); settings: inoculum 1 to 5 x 10^4 CFU, about 18 hours, 35°C
# Description: as §1
# Streptococcus faecalis = experiment: Agar dilution MIC (Table II); settings: inoculum 1 to 5 x 10^4 CFU, about 18 hours, 35°C
# Description: as §1
# E. coli-lambda lysogen = experiment: Biochemical Induction Assay (BIA), modified; settings: ability to directly or indirectly initiate DNA damage
# From the text: The LL-E33288 antibiotics are active against gram-positive and gram-negative bacteria. Each of the components were also found to be active in a modification of the Biochemical Induction Assay [Elespuru, R. and Yarmolinsky, M., Environmental Mutagenesis, 1, 65-78 […]], a test which specifically measures the ability of an agent to directly or indirectly initiate DNA damage. In this assay, both LL-E33288γ1-I and LL-E33288δ1-I were active at concentrations lower than 1x10^-6 mcg/ml.
# This pseudoaglycone is also active as an antitumor agent as determined in the Biochemical Induction Assay (BIA), a bacterial assay system which specifically measures the ability of an agent to directly or indirectly initiate DNA damage. The indicator organism for this test is an E. coli-lambda lysogen, genetically constructed such that a DNA damaging event results in the expression of the gene for the enzyme β-galactosidase. This enzyme can be determined qualitatively or quantitatively by biochemical assay as an indication that DNA damage has occurred.
# A modified version of the quantitative liquid BIA disclosed by Elespuru, R. and Yarmolinsky, M., Environmental Mutagenesis, 1, 65 (1979) was used to evaluate these compounds.
compound,measurement,setting,value
Dihydro-LL-E33288γ1-I [Dihydro-LL-E33288gamma1-I],Minimal Inhibitory Concentration,Acinetobacter sp; Acinetobacter sp CMC 83-89,2 µg/mL
same,Minimal Inhibitory Concentration,Acinetobacter sp; Acinetobacter sp IO 83-49,>2 µg/mL
same,Minimal Inhibitory Concentration,Citrobacter diversus,2 µg/mL
same,Minimal Inhibitory Concentration,Citrobacter freundii,2 µg/mL
same,Minimal Inhibitory Concentration,Enterobacter aerogenes,2 µg/mL
same,Minimal Inhibitory Concentration,Enterobacter cloacae,2 µg/mL
same,Minimal Inhibitory Concentration,Escherichia coli; Escherichia coli ATCC 25922,1 µg/mL
same,Minimal Inhibitory Concentration,Escherichia coli; Escherichia coli CMC 84-11,2 µg/mL
same,Minimal Inhibitory Concentration,Escherichia coli; Escherichia coli No. 311(MP),2 µg/mL
same,Minimal Inhibitory Concentration,Klebsiella pneumoniae; Klebsiella pneumoniae AD(MP),1 µg/mL
same,Minimal Inhibitory Concentration,Klebsiella pneumoniae; Klebsiella pneumoniae CMC 84-5,>2 µg/mL
same,Minimal Inhibitory Concentration,Morganella morganii,1 µg/mL
same,Minimal Inhibitory Concentration,Providencia stuartii,2 µg/mL
same,Minimal Inhibitory Concentration,Pseudomonas aeruginosa; Pseudomonas aeruginosa 12-4-4(MP),2 µg/mL
same,Minimal Inhibitory Concentration,Pseudomonas aeruginosa; Pseudomonas aeruginosa ATCC 27853,2 µg/mL
same,Minimal Inhibitory Concentration,Serratia marcescens; Serratia marcescens CMC 83-27,2 µg/mL
same,Minimal Inhibitory Concentration,Serratia marcescens; Serratia marcescens F-35(MP),2 µg/mL
same,Minimal Inhibitory Concentration,Staphylococcus aureus; Staphylococcus aureus ATCC 25923,0.06 µg/mL
same,Minimal Inhibitory Concentration,Staphylococcus aureus; Staphylococcus aureus SSC 82-20,0.06 µg/mL
same,Minimal Inhibitory Concentration,Staphylococcus aureus; Staphylococcus aureus SSC 82-21,0.004 µg/mL
same,Minimal Inhibitory Concentration,Staphylococcus aureus; Staphylococcus aureus SSC 82-23,0.008 µg/mL
same,Minimal Inhibitory Concentration,Staphylococcus aureus; Staphylococcus aureus SSC 82-24,0.002 µg/mL
same,Minimal Inhibitory Concentration,Staphylococcus aureus; Staphylococcus aureus SSC 82-54,0.06 µg/mL
same,Minimal Inhibitory Concentration,Staphylococcus aureus; Staphylococcus aureus Smith(MP),0.004 µg/mL
same,Minimal Inhibitory Concentration,[1]; Staphylococcus epidermidis ATCC 12228,0.015 µg/mL
same,Minimal Inhibitory Concentration,[1]; Staphylococcus epidermidis CMC 83-133,0.015 µg/mL
same,Minimal Inhibitory Concentration,Streptococcus faecalis; Streptococcus faecalis ATCC 29212,0.001 µg/mL
same,Minimal Inhibitory Concentration,Streptococcus faecalis; Streptococcus faecalis CMC 83-53,0.015 µg/mL
same,Minimal Inhibitory Concentration,Streptococcus faecalis; Streptococcus faecalis IO 83-28,0.015 µg/mL
CCN[C@H]1CO[C@@H](O[C@H]2[C@H](O[C@H]3C#CC=CC#C[C@@]4(O)CC(=O)C(NC(=O)OC)=C3/C4=C\CSSSC)O[C@H](C)[C@@H](NO[C@H]3C[C@H](O)[C@H](SC(=O)c4c(C)c(I)c(O[C@@H]5O[C@@H](C)[C@H](O)[C@@H](OC)[C@H]5O)c(OC)c4OC)[C@@H](C)O3)[C@@H]2O)C[C@@H]1OC (stereo in doubt) [LL-E33288γ1-I],active at concentrations,E. coli-lambda lysogen,lower than 1x10^-6 mcg/ml
